The assay concerns the target T1, recombinant human ASK1 protein (catalytic domain, residues 659–951) (Homo sapiens, UniProt Q99683).
T1 construct: The catalytic domain of ASK1 (encoding residues 659–951) was modified to include an N-terminal 6XHis tag; 6XHis (N); made in house; host or cells: E. coli Rosetta2 (DE3)
As to the kind of experiment: ASK1 enzyme inhibition assay (ADP-Glo). It is filed as biochemical. The note with it: for ΔGexp: estimated from IC50 using ΔG = RTln(IC50), 298 K; for IC50: mean ± SEM, n = 3 experiments, 25 μM ATP, 0.1 μg/μL MBP, ADP-Glo. The protocol:
The recombinant human ASK1 protein was expressed in E. coli Rosetta2 (DE3) in LB medium, containing 100 µg/mL ampicillin and 34 µg/mL chloramphenicol. A total of 2 mL overnight culture was diluted 100-fold into 200 mL LB and grown at 37 °C with shaking at 200 rpm until the OD600 reached 0.8. Subsequently, 0.5 mM IPTG was added, and protein expression was induced overnight at 20 °C.
The IC50 value for each inhibitor was determined using the ADP-Glo™ protocol. Inhibitors were prepared as a series of 1:1 serial dilutions (final concentration of 10 μM) in 40 mM HEPES buffer (pH 7.5) containing 20 mM MgCl2, 0.1 mg/mL BSA, 50 μM DTT and 5% DMSO.
The reaction was terminated by adding 5 μL of ADP-Glo reagent and incubated at room temperature for 40 min. Then, 10 μL of kinase detection reagent was added, and the mixture was incubated for an additional 30 min. Luminescence was measured using a VICTOR Nivo microplate reader (PerkinElmer, Waltham, MA, USA), and the concentration–response curve and half-maximal inhibitory concentration (IC50) values were obtained by fitting the data using GraphPad Prism (v.9.0) software.

T1 sequence (Q99683 659-951): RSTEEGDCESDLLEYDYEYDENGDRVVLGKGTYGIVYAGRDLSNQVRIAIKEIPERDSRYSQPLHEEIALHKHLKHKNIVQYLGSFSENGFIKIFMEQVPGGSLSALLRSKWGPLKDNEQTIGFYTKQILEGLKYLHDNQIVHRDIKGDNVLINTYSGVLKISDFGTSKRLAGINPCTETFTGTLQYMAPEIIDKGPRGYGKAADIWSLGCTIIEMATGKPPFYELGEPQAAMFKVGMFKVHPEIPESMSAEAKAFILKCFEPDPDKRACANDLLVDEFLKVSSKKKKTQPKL

On to `CC(C)n1cnnc1-c1cccc(NC(=O)N2CCCC2)n1` [Compound 1], for which the ΔGexp was -7.41 ± 0.01 kcal/mol and the 50% inhibitory concentration (IC50) is 3630 ± 72.2 nM.

As to `COc1ccc2c(c1)CCN2C(=O)Nc1cccc(-c2nncn2C(C)C)n1` [Compound 4], the ΔGexp is -10.01 ± 0.07 kcal/mol and the IC50 was 45.3 ± 4.82 nM.

For the compound `CC(C)n1cnnc1-c1cccc(NC(=O)N2CCc3ccccc3C2)n1` [Compound 7], the ΔGexp was -7.21 ± 0.06 kcal/mol and the IC50 worked out at 5110 ± 507 nM.

With `COc1ccc2c(c1)N(C(=O)Nc1cccc(-c3nncn3C(C)C)n1)CC2` [Compound 2], the ΔGexp was -12.02 ± 0.11 kcal/mol and the IC50 amounted to 1.55 ± 0.27 nM.

Turning to `CC(C)n1cnnc1-c1cccc(NC(=O)N2CCc3cc(C(F)(F)F)ccc32)n1` [Compound 5], the ΔGexp is -8.85 ± 0.02 kcal/mol and the IC50 turned out to be 319 ± 10.9 nM.

`CC(C)n1cnnc1-c1cccc(NC(=O)N2CCCc3ccccc32)n1` [Compound 6]: the ΔGexp is -11.64 ± 0.06 kcal/mol and the IC50 is 2.92 ± 0.28 nM.

Take `CC(C)n1cnnc1-c1cccc(NC(=O)N2CCc3ccc(OC(F)(F)F)cc32)n1` [Compound 3]: the ΔGexp was -8.21 ± 0.01 kcal/mol and the IC50 stood at 954 ± 21.5 nM.

By IC50 is commonly meant the midpoint of a concentration-inhibition curve.

The record behind these values is PMC11854949, “Discovery of Novel Pyridin-2-yl Urea Inhibitors Targeting ASK1 Kinase and Its Binding Mode by Absolute Protein–Ligand Binding Free Energy Calculations” (International Journal of Molecular Sciences, 2025).
